Assay results as given in US5036059A, “1,4-Dihydropyridine-3-carboxylate derivatives” (Nippon Shinyaku Company, Limited, priority 1984, dated 1991).

Tests used:
[1] = system: rats (with normal blood pressure); assay: Hypotensive action, mean blood pressure of femoral artery in unanesthetized normotensive rats, oral; type: in vivo; conditions: Rattus norvegicus, read-out: % Decreases in Mean Blood Pressure [at peak effect]; for inhibition in vivo at 1 mg/kg: 1 mg/kg oral; for inhibition in vivo at 3 mg/kg: 3 mg/kg oral; for inhibition in vivo at 10 mg/kg: 10 mg/kg oral
Protocol: Blood pressure of femoral artery of rats (with normal blood pressure) under unanesthetized condition was measured directly using a pressure tranducer.
The present invention compounds were given orally at doses of 1, 3 and 10 mg/kg, and changes in blood pressure were continuously recorded. Percent decreases of mean blood pressure at the peak effect were calculated. The maximum changes in mean blood pressure (%) were shown as "hypotensive action" (Table 2).
Hypotensive action of diltiazem (which is a known hypotensive drug) measured by the same method at the doses of 3, 10 and 30 mg/kg were 0, 11.2 and 33.0%, respectively. Hypotensive action of the compound of Example 4 which is one of the most representative compounds of this invention was tested using spontaneously hypertensive rats and was compared with those of Nifedipine and Diltiazem hydrochloride. The method applied was that the drugs were orally given to the rats of which systolic arterial blood pressure were higher than 180 mmHg when it was measured plethysmographically using tail arteries. (Table 3)

guinea pig heart = assay: Coronary vasodilating action, constant pressure perfusion of isolated guinea pig heart (Langendorff); conditions: Cavia porcellus, via coronary artery, read-out: Perfusion Increasing Rate; for activation at 0.001 mg: 10^-6 gram/heart; for activation at 0.0001 mg: 10^-7 gram/heart
Protocol: Constant pressure perfusion samples of guinea pig heart isolated by a method according to Langendorff were treated with the present invention compounds by administration via coronary artery and the effect was examined (Table 1).
With reference to coronary vasodilating action of diltiazem measured by the same method, the increasing rates in perfusion by administration of 10^-7, 10^-6 and 10^-5 gram/heart were 4, 16 and 55%, respectively.

| Compound | inhibition in vivo at 1 mg/kg [1] [%] | inhibition in vivo at 3 mg/kg [1] [%] | inhibition in vivo at 10 mg/kg [1] [%] | activation at 0.001 mg (guinea pig heart) [%] | activation at 0.0001 mg (guinea pig heart) [%] |
| --- | --- | --- | --- | --- | --- |
| CC1=C(C(=O)OCCN(C)Cc2ccccc2)C(c2cccc([N+](=O)[O-])c2)C(P2(=O)OCCCO2)=C(C)N1 (stereo not drawn) [Example 2, 2-(N-benzyl-N-methylamino)ethyl 2,6-dimethyl-4-(3-nitrophenyl)-5-(2-oxo-1,3,2-dioxaphosphorinan-2-yl)-1,4-dihydropyridine-3-carboxylate] | 18.4 | 39.2 | 50.1 |  |  |
| CCOC(=O)C1=C(C)NC(C)=C(P2(=O)OCCCO2)C1c1ccccc1[N+](=O)[O-] (stereo not drawn) [Example 5, Ethyl 2,6-dimethyl-4-(2-nitrophenyl)-5-(2-oxo-1,3,2-dioxaphosphorinan-2-yl)-1,4-dihydropyridine-3-carboxylate] | 39.7 | 43.3 | 46.2 |  |  |
| CC1=C(C(=O)OC(C)C)C(c2ccccc2[N+](=O)[O-])C(P2(=O)OCCCO2)=C(C)N1 (stereo not drawn) [Example 6, Isopropyl 2,6-dimethyl-4-(2-nitrophenyl)-5-(2-oxo-1,3,2-dioxaphosphorinan-2-yl)-1,4-dihydropyridine-3-carboxylate] |  |  |  | 52 | 10 |
| COC(=O)C1=C(C)NC(C)=C(P2(=O)OCC(C)(C)CO2)C1c1cccc([N+](=O)[O-])c1 (stereo not drawn) [Example 7, Methyl 2,6-dimethyl-5-(5,5-dimethyl-2-oxo-1,3,2-dioxaphosphorinan-2-yl)-4-(3-nitrophenyl)-1,4-dihydropyridine-3-carboxylate] | 12.7 | 18.4 | 31.4 |  |  |
| CC1=C(C(=O)OCCN(C)Cc2ccccc2)C(c2cccc([N+](=O)[O-])c2)C(P2(=O)OCC(C)(C)CO2)=C(C)N1 (stereo not drawn) [Example 9, 2-(N-Benzyl-N-methylamino)-ethyl 2,6-dimethyl-5-(5,5-dimethyl-2-oxo-1,3,2-dioxaphosphorinan-2-yl)-4-(3-nitrophenyl)-1,4-dihydropyridine-3-carboxylate] | 12.7 | 12.9 | 40.4 |  |  |
| CC1=C(C(=O)OCCN(C)C)C(c2cccc([N+](=O)[O-])c2)C(P2(=O)OCC(C)(C)CO2)=C(C)N1 (stereo not drawn) [Example 10, 2-(N,N-Dimethylamino)ethyl 2,6-dimethyl-5-(5,5-dimethyl-2-oxo-1,3,2-dioxaphosphorinan-2-yl)-4-(3-nitrophenyl)-1,4-dihydropyridine-3-carboxylate] |  |  |  | 22 | 12 |
| CCCOCCOC(=O)C1=C(C)NC(C)=C(P2(=O)OCC(C)(C)CO2)C1c1cccc([N+](=O)[O-])c1 (stereo not drawn) [Example 11, 2-n-Propoxyethyl 2,6-dimethyl-5-(5,5-dimethyl-2-oxo-1,3,2-dioxaphosphorinan-2-yl)-4-(3-nitrophenyl)-1,4-dihydropyridine-3-carboxylate] |  |  |  | 53 | 11 |
| CC1=C(C(=O)OCCOCc2ccccc2)C(c2cccc([N+](=O)[O-])c2)C(P2(=O)OCC(C)(C)CO2)=C(C)N1 (stereo not drawn) [Example 12, 2-Benzyloxyethyl 2,6-dimethyl-5-(5,5-dimethyl-2-oxo-1,3,2-dioxaphosphorinan-2-yl)-4-(3-nitrophenyl)-1,4-dihydropyridine-3-carboxylate] |  |  |  | 67 | 14 |
| COC(=O)C1=C(C)NC(C)=C(P2(=O)OC(C)CC(C)O2)C1c1ccccc1[N+](=O)[O-] (stereo not drawn) [Example 18, Methyl 2,6-dimethyl-5-(4,6-dimethyl-2-oxo-1,3,2-dioxaphosphorinan-2-yl)-4-(2-nitrophenyl)-1,4-dihydropyridine-3-carboxylate] | 15.7 | 42.7 | 45.5 |  |  |
| CC1=C(C(=O)OCCN(C)Cc2ccccc2)C(c2cccc([N+](=O)[O-])c2)C(P2(=O)O[C@H](C)C[C@@H](C)O2)=C(C)N1 (stereo partly drawn) [Example 20, 2-(N-Benzyl-N-methylamino)-ethyl 2,6-dimethyl-5-[4(R),6(R)-dimethyl-2-oxo-1,3,2-dioxaphosphorinan-2-yl]-4-(3-nitrophenyl)-1,4-dihydropyridine-3-carboxylate] |  |  |  | 32 | 10 |
| CCC1(CC)COP(=O)(C2=C(C)NC(C)=C(C(=O)OC)C2c2ccccc2[N+](=O)[O-])OC1 (stereo not drawn) [Example 24, Methyl 5-(5,5-diethyl-2-oxo-1,3,2-dioxaphosphorinan-2-yl)-2,6-dimethyl-4-(2-nitrophenyl)-1,4-dihydropyridine-3-carboxylate] |  |  |  | 41 | 12 |
| COC(=O)C1=C(C)NC(C)=C(P2(=O)OCC(C)CO2)C1c1cccc([N+](=O)[O-])c1 (stereo not drawn) [Example 26] | 28.7 | 37.1 | 43.8 |  |  |
| CCC1COP(=O)(C2=C(C)NC(C)=C(C(=O)OC)C2c2cccc([N+](=O)[O-])c2)OC1 (stereo not drawn) [Example 28, Methyl 5-(5-ethyl-Z-oxo-1,3,2-dioxaphosphorinan-2-yl)-2,6-dimethyl-4-(3-nitrophenyl)-1,4-dihydropyridine-3-carboxylate] | 16.5 | 26.6 | 33.9 |  |  |
| CCC1COP(=O)(C2=C(C)NC(C)=C(C(=O)OCCN(C)Cc3ccccc3)C2c2cccc([N+](=O)[O-])c2)OC1 (stereo not drawn) [Example 29, 2-(N-Benzyl-N-methylamino)-ethyl 5-(5-ethyl-2-oxo-1,3,2-dioxaphosphorinan-2-yl)-2,6-dimethyl-4-(3-nitrophenyl)-1,4-dihydropyridine-3-carboxylate] |  |  |  | 59 | 34 |
| CCC1COP(=O)(C2=C(C)NC(C)=C(C(=O)OC)C2c2ccccc2[N+](=O)[O-])OC1 (stereo not drawn) [Example 30, Methyl 5-(5-ethyl-2-oxo-1,3,2-dioxaphosphorinan-2-yl)-2,6-dimethyl-4-(2-nitrophenyl)-1,4-dihydropyridine-3-carboxylate] |  |  |  | 26 | 13 |
| COC(=O)C1=C(C)NC(C)=C(P2(=O)OCC(C(C)C)CO2)C1c1ccccc1[N+](=O)[O-] (stereo not drawn) [Example 34, Methyl 2,6-dimethyl-5-(5-isopropyl-2-oxo-1,3,2-dioxaphosphorinan-2-yl)-4-(2-nitrophenyl)-1,4-dihydropyridine-3-carboxylate] |  |  |  | 38 | 13 |
| CC1=C(C(=O)OCCN(C)Cc2ccccc2)C(c2cccc([N+](=O)[O-])c2)C(P2(=O)OCC3(CCC3)CO2)=C(C)N1 (stereo not drawn) [Example 37, 2-(N-Benzyl-N-methylamino)-ethyl-2,6-dimethyl-4-(3-nitrophenyl)-5-(7-oxo-6,8-dioxa-7-phosphaspiro(3,5)nonan-7-yl)-1,4-dihydropyridine-3-carboxylate] |  |  |  | 26 | 22 |
| CCOC(=O)C1=C(C)NC(C)=C(P2(=O)OCC3(CCC3)CO2)C1c1ccccc1[N+](=O)[O-] (stereo not drawn) [Example 39, Ethyl 2,6-dimethyl-4-(2-nitrophenyl)-5-(7-oxo-6,8-dioxa-7-phosphaspiro(3,5)nonan-7-yl)-1,4-dihydropyridine-3-carboxylate] |  |  |  | 31 | 12 |
| COC(=O)C1=C(C)NC(C)=C(P2(=O)OCC3(CCCCC3)CO2)C1c1cccc([N+](=O)[O-])c1 (stereo not drawn) [Example 40, Methyl 2,6-dimethyl-4-(3-nitrophenyl)-5-(3-oxo-2,4-dioxa-3-phosphoaspiro(5,5)undecan-3-yl)-1,4-dihydropyridine-3-carboxylate] |  |  |  | 82 | 29 |
| CCOC(=O)C1=C(C)NC(C)=C(P2(=O)OCCCO2)C1c1ccccc1C(F)(F)F (stereo not drawn) [Example 51, Ethyl 2,6-dimethyl-5-(2-oxo-1,3,2-dioxaphosphorinan-2-yl)-4-(2-trifluoromethylphenyl)-1,4-dihydropyridine-3-carboxylate] | 21.1 | 43 | 45.4 |  |  |
| CC1=C(C(=O)OCCN(C)Cc2ccccc2)C(c2ccccc2OC(F)F)C(P2(=O)OCC(C)(C)CO2)=C(C)N1 (stereo not drawn) [Example 64, 2-(N-Benzyl-N-methylamino)-ethyl 4-(2-difluoromethoxyphenyl)-2,6-dimethyl-5-(5,5-dimethyl-2-oxo-1,3,2-dioxaphosphorinan-2-yl)-1,4-dihydropyridine-3-carboxylate] | 6.9 | 16.5 | 41.5 |  |  |
| CC1=C(C(=O)OCC2CC2)C(c2ccccc2[N+](=O)[O-])C(P2(=O)OCCCO2)=C(C)N1 (stereo not drawn) [Example 68, Cyclopropylmethyl 2,6-dimethyl-4-(2-nitrophenyl)-5-(2-oxo-1,3,2-dioxaphosphorinan-2-yl)-1,4-dihydropyridine-3-carboxylate] | 13 | 41.7 | 45.8 |  |  |
| CC(=O)COC(=O)C1=C(C)NC(C)=C(P2(=O)OCCCO2)C1c1ccccc1C(F)(F)F (stereo not drawn) [Example 76, 2-Oxopropyl 2,6-dimethyl-5-(2-oxo-1,3,2-dioxaphosphorinan-2-yl)-4-(2-trifluoromethylphenyl)-1,4-dihydropyridine-3-carboxylate] | 10.5 | 35 | 40.2 |  |  |
